The numbers were not newly measured in US20180080913A1, “SCREENING METHOD FOR MULTI-TARGET DRUGS AND/OR DRUG COMBINATIONS” (Wuhan Bio-links Technology Co., Ltd, priority 2015, published 2018), which cites them from elsewhere.

The subject of the data set is human gastric barcinoma cell line MGC803. The conditions noted are these: combination of d-limonene and berberine, active ingredients of Zuo Gui Wan.

Consider `C=C(C)[C@H]1CC=C(C)CC1` [d-limonene], for which the “promotion of gastric cancer cell apoptosis” value is given as “synergistically promote gastric cancer cell apoptosis”.

In the case of `COc1ccc2cc3[n+](cc2c1OC)CCc1cc2c(cc1-3)OCO2` [berberine], the “promotion of gastric cancer cell apoptosis” value is listed as “synergistically promote gastric cancer cell apoptosis”.
